Source: patent US11304929B2, “Tosylacetate based compounds and derivatives thereof as PHGDH inhibitors” (priority 2017, dated 2022)
pIC50: −log10 of the molar value. Read-outs that look alike come from different tables or passages of the source.

Target: PHGDH (Homo sapiens (Human), UniProt O43175)
Assay: 3-Phosphoglycerate Dehydrogenase (PHGDH) Fluorescence Intensity Assay, run at two NAD/3-PG ratios: PHGDH_HIGH_NAD/3-PG (250 μM NAD/500 μM 3-PG) and PHGDH_500_NAD/3-PG (500 μM NAD/500 μM 3-PG)
Assay type: biochemical
[1] = 500 μM NAD/500 μM 3-PG, read-out: IC50 (PHGDH_500_NAD/3-PG)
[2] = 250 μM NAD/500 μM 3-PG, read-out: IC50 (PHGDH_HIGH_NAD/3-PG)

Chain of PHGDH (O43175 2-533 limits assumed): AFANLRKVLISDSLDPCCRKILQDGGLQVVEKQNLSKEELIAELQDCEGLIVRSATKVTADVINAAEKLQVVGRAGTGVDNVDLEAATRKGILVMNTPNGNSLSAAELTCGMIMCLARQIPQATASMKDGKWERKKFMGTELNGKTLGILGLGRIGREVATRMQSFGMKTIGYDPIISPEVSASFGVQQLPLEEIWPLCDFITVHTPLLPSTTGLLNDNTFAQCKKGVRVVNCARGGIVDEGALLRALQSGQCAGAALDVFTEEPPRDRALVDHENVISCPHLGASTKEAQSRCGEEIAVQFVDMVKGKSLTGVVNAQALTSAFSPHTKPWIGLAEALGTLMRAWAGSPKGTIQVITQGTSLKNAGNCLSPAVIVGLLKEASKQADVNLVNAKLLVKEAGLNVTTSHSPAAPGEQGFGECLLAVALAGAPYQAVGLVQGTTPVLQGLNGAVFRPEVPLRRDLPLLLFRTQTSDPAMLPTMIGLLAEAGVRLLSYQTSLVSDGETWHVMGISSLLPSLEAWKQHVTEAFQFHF

SMILES: Cc1cc2c(cc(C(=O)N[C@H](CO)c3ccc(S(=O)(=O)CC(=O)OCCCO)cc3)n2C)c(F)c1F [Example 09-038, 3-hydroxypropyl 2-{4-[(1S)-1-[(4,5-difluoro-1,6-dimethyl-1H-indol-2-yl)formamido]-2-hydroxyethyl]benzenesulfonyl}acetate]
- pIC50 [1]: 6.59

SMILES: Cc1cc2c(cc(C(=O)N[C@H](CO)c3ccc(S(=O)(=O)CC(=O)OCC(C)(C)O)cc3)n2C)c(Cl)c1Cl [Example 09-039, 2-hydroxy-2-methylpropyl 2-{4-[(1S)-1-[(4,5-dichloro-1,6-dimethyl-1H-indol-2-yl)formamido]-2-hydroxyethyl]benzenesulfonyl}acetate]
- pIC50 [1]: 6.77

SMILES: Cc1cc2c(cc(C(=O)N[C@H](CO)c3ccc(S(=O)(=O)CC(=O)OCCCO)cc3)n2C)c(Cl)c1Cl [Example 09-040, 3-hydroxypropyl 2-{4-[(1S)-1-[(4,5-dichloro-1,6-dimethyl-1H-indol-2-yl)formamido]-2-hydroxyethyl]benzenesulfonyl}acetate]
- pIC50 [1]: 6.72

SMILES: Cc1cc2c(cc(C(=O)N[C@H](CO)c3ccc(S(=O)(=O)CC(=O)OCCO)cc3)n2C)c(F)c1F [Example 09-041, 2-hydroxyethyl 2-{4-[(1S)-1-[(4,5-difluoro-1,6-dimethyl-1H-indol-2-yl)formamido]-2-hydroxyethyl]benzenesulfonyl}acetate]
- pIC50 [1]: 6.81

SMILES: Cc1cc2c(cc(C(=O)N[C@H](CO)c3ccc(S(=O)(=O)CC(=O)OCC(C)(C)CO)cc3)n2C)c(F)c1F [Example 09-042, 3-hydroxy-2,2-dimethylpropyl 2-{4-[(1S)-1-[(4,5-difluoro-1,6-dimethyl-1H-indol-2-yl)formamido]-2-hydroxyethyl]benzenesulfonyl}acetate]
- pIC50 [1]: 6.29

SMILES: Cc1cc2c(cc(C(=O)N[C@H](CO)c3ccc(S(=O)(=O)CC(=O)OCC(C)(C)O)cc3)n2C)c(F)c1F [Example 09-043, 2-hydroxy-2-methylpropyl 2-{4-[(1S)-1-[(4,5-difluoro-1,6-dimethyl-1H-indol-2-yl)formamido]-2-hydroxyethyl]benzenesulfonyl}acetate]
- pIC50 [1]: 6.61

SMILES: Cc1cc2c(cc(C(=O)N[C@H](CO)c3ccc(S(=O)(=O)CC(=O)OCC(C)(C)CO)cc3)n2C)c(Cl)c1Cl [Example 09-044, 3-hydroxy-2,2-dimethylpropyl 2-{4-[(1S)-1-[(4,5-dichloro-1,6-dimethyl-1H-indol-2-yl)formamido]-2-hydroxyethyl]benzenesulfonyl}acetate]
- pIC50 [1]: 6.38

SMILES: COCCOC(=O)CS(=O)(=O)c1ccc([C@@H](C)NC(=O)c2cc(-c3ccccc3)nn2C)cc1 [Example 10-001, 2-methoxyethyl 2-{4-[(1R)-1-[(1-methyl-3-phenyl-1H-pyrazol-5-yl)formamido]ethyl]benzenesulfonyl}acetate]
- pIC50 [2]: 5.84

SMILES: C[C@@H](NC(=O)c1cc(-c2ccccc2)nn1C)c1ccc(S(=O)(=O)CC(=O)OCCN(C)C)cc1 [Example 10-002, 2-(dimethylamino)ethyl 2-{4-[(1R)-1-[(1-methyl-3-phenyl-1H-pyrazol-5-yl)formamido]ethyl]benzenesulfonyl}acetate]
- pIC50 [2]: 6.30

SMILES: C[C@@H](NC(=O)c1cc(-c2ccccc2)nn1C)c1ccc(S(=O)(=O)CC(=O)OCCF)cc1 [Example 10-004, 2-fluoroethyl 2-{4-[(1R)-1-[(1-methyl-3-phenyl-1H-pyrazol-5-yl)formamido]ethyl]benzenesulfonyl}acetate]
- pIC50 [2]: 5.84

SMILES: C[C@@H](NC(=O)c1cc(-c2ccc(F)cc2)nn1C)c1ccc(S(=O)(=O)CC(=O)OCCO)cc1 [Example 10-005, 2-hydroxyethyl 2-{4-[(1R)-1-{[3-(4-fluorophenyl)-1-methyl-1H-pyrazol-5-yl]formamido}ethyl]benzenesulfonyl}acetate]
- pIC50 [2]: 6.12

SMILES: C[C@@H](NC(=O)c1cc(-c2ccc(F)cc2)nn1C)c1ccc(S(=O)(=O)CC(=O)OCC2COC2)cc1 [Example 10-007, oxetan-3-ylmethyl 2-{4-[(1R)-1-{[3-(4-fluorophenyl)-1-methyl-1H-pyrazol-5-yl]formamido}ethyl]benzenesulfonyl}acetate]
- pIC50 [2]: 6.15

SMILES: COC(=O)C[S+]([O-])c1ccc([C@@H](C)NC(=O)c2cc3c(Cl)c(Cl)c(C)cc3n2C)cc1 (stereo partly drawn) [Example 11-001, methyl 2-{4-[(1R)-1-[(4,5-dichloro-1,6-dimethyl-1H-indol-2-yl)formamido]ethyl]benzenesulfinyl}acetate]
- pIC50 [2]: 6.53
- pIC50 [1]: 6.36

SMILES: COC(=O)C[S@@+]([O-])c1ccc([C@@H](CO)NC(=O)c2cc3c(Cl)c(Cl)c(C)cc3n2C)cc1 [Example 11-002, methyl 2-[(R)-4-[(1S)-1-[(4,5-dichloro-1,6-dimethyl-1H-indol-2-yl)formamido]-2-hydroxyethyl]benzenesulfinyl]acetate]
- pIC50 [2]: 6.72
- pIC50 [1]: 6.54

SMILES: COC(=O)C[S@+]([O-])c1ccc([C@@H](CO)NC(=O)c2cc3c(Cl)c(Cl)c(C)cc3n2C)cc1 [Example 11-003, methyl 2-[(S)-4-[(1S)-1-[(4,5-dichloro-1,6-dimethyl-1H-indol-2-yl)formamido]-2-hydroxyethyl]benzenesulfinyl]acetate]
- pIC50 [2]: 7.05
- pIC50 [1]: 6.86

SMILES: COC(=O)C[S+]([O-])c1ccc([C@@H](CO)NC(=O)c2cc3c(Cl)c(Cl)c(C)cc3n2C)cc1 (stereo partly drawn) [Example 11-004, methyl 2-{4-[(1S)-1-[(4,5-dichloro-1,6-dimethyl-1H-indol-2-yl)formamido]-2-hydroxyethyl]benzenesulfinyl}acetate]
- pIC50 [2]: 7.01
- pIC50 [1]: 6.71

SMILES: COC(=O)C[S+]([O-])c1ccc([C@@H](CO)NC(=O)c2cc3c(Cl)cc(C)cc3n2C)cc1 (stereo partly drawn) [Example 11-005, methyl 2-{4-[(1S)-1-[(4-chloro-1,6-dimethyl-1H-indol-2-yl)formamido]-2-hydroxyethyl]benzenesulfinyl}acetate]
- pIC50 [2]: 6.66

SMILES: COC(=O)C[S@@+]([O-])c1ccc([C@@H](C)NC(=O)c2cc3c(Cl)cc(C)cc3n2C)cc1 [Example 11-006, methyl 2-[(R)-4-[(1R)-1-[(4-chloro-1,6-dimethyl-1H-indol-2-yl)formamido]ethyl]benzenesulfinyl]acetate]
- pIC50 [2]: 5.95

SMILES: COC(=O)C[S@+]([O-])c1ccc([C@@H](C)NC(=O)c2cc3c(Cl)cc(C)cc3n2C)cc1 [Example 11-007, methyl 2-[(S)-4-[(1R)-1-[(4-chloro-1,6-dimethyl-1H-indol-2-yl)formamido]ethyl]benzenesulfinyl]acetate]
- pIC50 [2]: 6.63

SMILES: COC(=O)C[S@+]([O-])c1ccc([C@@H](CO)NC(=O)c2cc3c(Cl)cc(C)cc3n2C)cc1 [Example 11-008, methyl 2-[(S)-4-[(1S)-1-[(4-chloro-1,6-dimethyl-1H-indol-2-yl)formamido]-2-hydroxyethyl]benzenesulfinyl]acetate]
- pIC50 [2]: 6.92

SMILES: COC(=O)C[S+]([O-])c1ccc([C@@H](C)NC(=O)c2cc3c(Cl)cc(C)cc3n2C)cc1 (stereo partly drawn) [Example 11-009, methyl 2-{4-[(1R)-1-[(4-chloro-1,6-dimethyl-1H-indol-2-yl)formamido]ethyl]benzenesulfinyl}acetate]
- pIC50 [2]: 6.21

SMILES: COC(=O)C[S@@+]([O-])c1ccc([C@@H](CO)NC(=O)c2cc3c(Cl)cc(C)cc3n2C)cc1 [Example 11-010, methyl 2-[(R)-4-[(1S)-1-[(4-chloro-1,6-dimethyl-1H-indol-2-yl)formamido]-2-hydroxyethyl]benzenesulfinyl]acetate]
- pIC50 [2]: 6.35
